This note sets out measurements from ChEMBL document CHEMBL3860047, “Modulating the strength of hydrogen bond acceptors to achieve low Caco2 efflux for oral bioavailability of PARP inhibitors blocking centrosome clustering” (Bioorg Med Chem Lett, 2016).

The structures appear in SMILES notation.

The data set can be described thus: Dissociation constant, pKa of the compound. It counts as physicochemical.
As for `CN(C)C(=O)c1ccccc1`, the pKa came out at 1.2. With `NCc1ccccc1` [BENZYLAMINE] the figure was 9.6; with `C[S+](C)[O-]` [DIMETHYL SULFOXIDE], 1.54; with `c1ccnnc1` [PYRIDAZINE], 2.24.
